Laboratory results reported in patent publication US11833144B2, “Treating autoimmune disease” (Mayo Foundation for Medical Education and Research, priority 2020, dated 2023).

Tests used:
human B cells = test: Human naive B cell proliferation (thymidine incorporation) and CD27 expression; format: cell-based
Procedure: PBMCs were isolated from the medical waste following apheresis collection of platelets. Briefly, blood was diluted 1:3 using PBS. The diluted blood was then overlaid with Ficoll-Paque PLUS density gradient medium (GE Healthcare). The gradient was centrifuged at 400 g with no brake for 25 minutes at room temperature. The PBMC interphase layer was collected, washed with PBS with 0.1% BSA/2 mM of EDTA. Naive B cells (CD19^+CD27^−IgD^+) were enriched using Human naive B cell negative selection kit (Stemcell Technologies). Mouse B cells were isolated from pooled single cell suspensions of spleen and peripheral lymph nodes using CD19 Microbeads (Miltenyi) or Mouse B cell Isolation Kit (Stemcell Technologies). B cells were stimulated with LPS (10 μg/mL; Sigma-Aldrich) and recombinant IL-4 cytokine (10 ng/mL; Tonbo Bioscience) with or without SCD inhibitor SSI-4, and proliferation was measured by dilution of CellTrace Violet proliferation dye (Thermo Fisher Scientific). B cells were also stimulated with anti-IgM (10 μg/mL; Jackson ImmunoResearch), anti-CD40 (10 μg/mL; BioXcell) and IL-4 (10 ng/mL; Tonbo Bioscience), or TLR ligand CpG (2.5 μM; IDT), recombinant IL-4 and IL-5 (10 ng/mL; Tonbo Bioscience) cytokines. To test the function of monounsaturated and saturated fatty acids, B cells were activated in presence of exogenous fatty acid-BSA conjugate. Palmitoleic acid (NU-CHEK PREP, INC), palmitic acid (NU-CHEK PREP, INC), stearic acid (NU-CHEK PREP, INC) were conjugated with fatty acid free BSA (Sigma-Aldrich) as described elsewhere (Wang et al., Immunity 35:871-882 (2011)). Human B cells were activated with CpG OND2006 (2.5 μM; IDT), recombinant human cytokine IL-10 ([…]; Peprotech), IL-15 (10 ng/mL; Peprotech), IL-4 (10 ng/mL; Biolegend), IL-2 (10 unit/mL) and anti-human CD40 (1 μg/mL; BioXcell). Human B cell proliferation was measured by ^3[H]-thymidine incorporation (1 μCi/mL) (American Radiolabeled Chemicals).

activated human B cells = test: Seahorse OCR / ECAR in activated human B cells; format: cell-based
Procedure: The bioenergetic activities of the OCR and ECAR were measured using a Seahorse XFe96 Extracellular Flux Analyzed following established protocols (Agilent). Briefly, B cells were seeded at 200,000 cells/well on Cell-Tak (Corning) coated XFe96 plate with fresh XF media (Seahorse XF RPMI medium containing 10 mM glucose, 2 mM L-glutamine, and 1 mM sodium pyruvate, PH 7.4; all reagents from Agilent). OCR was measured in the presence of Oligomycin (1.5 μM; Sigma-Aldrich), FCCP (1.5 μM; Sigma-Aldrich), and Rotenone (1 μM; Sigma-Aldrich)/Antimycin A (1 μM; Sigma-Aldrich) in Mito Stress assay. For ECAR measurement, B cells were seeded in XFe96 plate with fresh Seahorse XF RPMI medium with 2 mM L-glutamine (PH 7.4), and treated with glucose (10 mM; Agilent), Oligomycin (1.5 and 2-DG (50 mM; Sigma-Aldrich) orderly in Glycolysis Stress assay.

SCD [1] = test: Fatty acid composition of fresh and activated B cells by LC-MS/MS; format: cell-based, mouse; conditions: 100 nM SSI-4, 48 hours
SCD [2] = test: 13C-glucose tracing of de novo fatty acid biosynthesis in activated B cells (NEFA isotopomer analysis); format: cell-based, mouse; conditions: 48 hours
Procedure: Briefly, 5×10^6 activated B cells were washed with PBS and re-cultured in glucose-free medium RPMI medium containing 10% dialyzed FBS and uniformly labeled [^13C]-glucose (2 g/L; Sigma-Aldrich) for 24 and 48 hours. Cell pellets were lysed in 1×PBS prior to lipid extraction. The extract was dried down and brought up in running buffer before underwent analysis on an Agilent 6550 iFunnel Q-TOF mass spectrometer/1290 Infinity liquid chromatographic system. A mixed standard containing 14 fatty acids was also run at the beginning and at the end of the sequence to generate retention time lock as well as unlabeled mass spectrum for each fatty acid. The mass spec was operating in negative electrospray ionization. Data was acquired in scan mode from 50-1700 m/z range. Data analysis was performed on Agilent Technologies software including Profinder, Mass Profiler Professional (MPP) and Vista Flux. Briefly, the features extracted from the data files were aligned using Profinder and converted to a compound exchange file (CEF) format to import in the MPP. The list was filtered for frequency and abundance to identify features that are present in all samples and with high abundance. A library was created using mass, molecular formula, and retention time of these features and used in conjunction with the Vista Flux software to determine the presence of isotopologue in individual feature. […]

activated mouse B cells = test: Transmission electron microscopy of autophagosomes in activated mouse B cells; format: cell-based; conditions: SSI-4 treated B cells
Procedure: Cells were fixed in Trumps fixative (pH 7.2) at 4° C. overnight, spun down and the supernatant removed. They were re-suspended in 2% agarose which was allowed to cool and solidify. The cells in agarose were then post-fixed in 1% OsO4, dehydrated through a graded series of ethanols and embedded in Spurr resin. One hundred nm […] ultra-thin sections were mounted on 200-mesh copper grids, post-stained with lead citrate, and observed under a JEOL JEM-1400 transmission electron microscope at 80 kV.

[3] = tested on: mice immunized with NP-OVA; test: NP-OVA immunization of mice fed SSI-4 chow: humoral immune response; format: in vivo, mouse

| SMILES | restoration of human B cell proliferation and CD27 expression upon SSI-4 treatment (human B cells; SSI-4 (10 nM) plus exogenous OA) | human B cell activation measured by CD27 expression, exogenous OA alone (human B cells; flow cytometry MFI) | human B cell proliferation, exogenous OA alone (human B cells; thymidine incorporation) | human B cell glycolysis (ECAR) (activated human B cells; exogenous OA, 72 h) | respiration (OCR) in activated human B cells (activated human B cells; exogenous fatty acid, 72 hours) | accumulation of MUFAs (PO, OA) in activated B cells (SCD [1]) | 13C incorporation from glucose in OA, PO and vaccenic acid (SCD [2]) | 13C incorporation from glucose into SA, PA and myristic acid (SCD [2]) | autophagosome structures by transmission electron microscopy (activated mouse B cells) | B220intCD138+ plasmablast generation ([3]; NP-OVA immunized, SSI-4 chow) | antigen specific NP+ GC B cells ([3]; NP-OVA immunized, SSI-4 chow) | splenic GC formation ([3]; NP-OVA immunized, SSI-4 chow) | OA level in sera of immunized mice ([3]; NP-OVA immunized, SSI-4 chow, GC-MS) | mTORC1 activity (p-S6 MFI) in splenic B cells in vivo ([3]; SSI-4 chow (30 mg/kg), NP-OVA immunization for one week) | percentage of Tfh cells after immunization ([3]; SSI-4 chow vs control chow) | production of anti-NP specific IgM antibodies ([3]; serum ELISA) | production of anti-NP specific total IgG and IgG1 antibodies ([3]; serum ELISA) |
| --- | --- | --- | --- | --- | --- | --- | --- | --- | --- | --- | --- | --- | --- | --- | --- | --- | --- |
| CCCCCCCC/C=C\CCCCCCCC(=O)O [OA, oleic acid] | restored B cell proliferation and CD27 expression | promoted | promoted human B cell proliferation | improved human B cell glycolysis | augmented respiration | – | – | – | – | – | – | – | – | – | – | – | – |
| CNC(=O)c1ccnc(NC(=O)N2CCC(Oc3ccccc3Cl)CC2)c1 [SSI-4, 2-{[4-(2-Chlorophenoxy)piperidine-1-carbonyl]amino}-N-methylpyridine-4-carboxamide] | – | – | – | – | – | largely reversed it | all abolished | largely unaffected | increased structures with double layer membrane | not affected | reduced | significantly suppressed | substantially reduced | suppressed mTORC1 activity | comparable | but not IgM | significantly reduced |
